Data: ChEMBL document CHEMBL6153155, “Novel Cyclohexyl Amido Acid Antagonists of Lysophosphatidic Acid Type 1 Receptor for the Treatment of Pulmonary Fibrosis” (ACS Med Chem Lett, 2025)
Values after ≈ are worked out from the molar mass of the structure shown.

Experiments:
[1] = molecular target: Lysophosphatidic acid receptor 1 (Homo sapiens, UniProt Q92633); assay: Antagonist activity at human LPA1 expressed in CHO cells incubated for 30 mins by FLIPR-based calcium mobilization assay
[2] = Lipophilicity, logD of compound at pH 7.4 by chromatographic hydrophobicity index method; type: physicochemical; conditions: buffer
[3] = Metabolic stability in female C57BL/6J mouse liver microsomes assessed as intrinsic clearance measured per mg of protein at 0.5 uM measured upto 45 mins in presence of NADPH regenerating system by HPLC-MS/MS analysis; type: ADME, Microsome; conditions: read-out: CLH
[4] = Metabolic stability in human liver microsomes assessed as intrinsic clearance measured per mg of protein at 0.5 uM measured upto 45 mins in presence of NADPH regenerating system by HPLC-MS/MS analysis; type: ADME, Microsome; conditions: read-out: CLH
[5] = molecular target: BSEP (Homo sapiens, UniProt O95342); assay: Inhibition of BSEP in cryopreserved sandwich-cultured human hepatocytes by measuring reduction in TCA biliary clearance using taurocholic acid as substrate at 50 uM relative to control; type: cell-based, Hepatocyte; conditions: cryopreserved sandwich-cultured hepatocytes, probe taurocholic acid
Sequence of BSEP (O95342 whole entry): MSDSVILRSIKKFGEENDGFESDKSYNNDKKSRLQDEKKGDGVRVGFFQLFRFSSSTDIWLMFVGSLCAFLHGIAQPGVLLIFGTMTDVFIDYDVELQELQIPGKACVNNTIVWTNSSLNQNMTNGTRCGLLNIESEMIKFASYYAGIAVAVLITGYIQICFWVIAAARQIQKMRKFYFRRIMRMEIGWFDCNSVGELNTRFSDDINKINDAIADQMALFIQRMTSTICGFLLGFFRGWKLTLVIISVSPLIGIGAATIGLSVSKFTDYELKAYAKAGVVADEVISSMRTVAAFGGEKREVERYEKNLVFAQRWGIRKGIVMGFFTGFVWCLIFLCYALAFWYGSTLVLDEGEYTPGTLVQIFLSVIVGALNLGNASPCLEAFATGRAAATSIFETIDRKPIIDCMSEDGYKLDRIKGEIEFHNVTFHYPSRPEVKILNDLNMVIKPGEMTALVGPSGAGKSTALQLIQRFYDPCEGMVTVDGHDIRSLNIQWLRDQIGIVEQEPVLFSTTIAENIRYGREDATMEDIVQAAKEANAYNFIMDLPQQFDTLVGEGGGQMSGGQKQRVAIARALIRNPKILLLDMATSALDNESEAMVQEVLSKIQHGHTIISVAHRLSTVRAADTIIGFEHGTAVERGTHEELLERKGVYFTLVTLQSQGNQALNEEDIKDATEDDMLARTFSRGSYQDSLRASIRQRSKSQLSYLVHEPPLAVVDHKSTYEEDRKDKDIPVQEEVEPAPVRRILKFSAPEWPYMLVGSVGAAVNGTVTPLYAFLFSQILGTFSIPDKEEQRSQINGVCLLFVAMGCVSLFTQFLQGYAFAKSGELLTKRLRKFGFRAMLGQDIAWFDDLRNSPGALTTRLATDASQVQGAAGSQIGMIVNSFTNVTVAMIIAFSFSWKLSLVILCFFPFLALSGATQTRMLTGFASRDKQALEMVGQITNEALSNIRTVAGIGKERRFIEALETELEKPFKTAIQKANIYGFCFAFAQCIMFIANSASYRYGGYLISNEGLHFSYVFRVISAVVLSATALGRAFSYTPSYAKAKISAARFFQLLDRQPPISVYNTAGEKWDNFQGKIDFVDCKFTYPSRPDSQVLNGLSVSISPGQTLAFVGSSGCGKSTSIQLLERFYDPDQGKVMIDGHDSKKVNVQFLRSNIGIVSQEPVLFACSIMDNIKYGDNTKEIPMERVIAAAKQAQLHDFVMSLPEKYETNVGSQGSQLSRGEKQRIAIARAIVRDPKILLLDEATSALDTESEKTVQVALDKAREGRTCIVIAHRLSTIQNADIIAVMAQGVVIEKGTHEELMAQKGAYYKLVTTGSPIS

[6] = molecular target: Lysophosphatidic acid receptor 1 (Mus musculus, UniProt P61793); assay: Antagonist activity at mouse LPA1 transfected in human HeLa cells incubated for 30 mins by FLIPR-based calcium mobilization assay; type: cell-based
Sequence of Lysophosphatidic acid receptor 1 (Mus musculus, UniProt P61793) (P61793 whole entry): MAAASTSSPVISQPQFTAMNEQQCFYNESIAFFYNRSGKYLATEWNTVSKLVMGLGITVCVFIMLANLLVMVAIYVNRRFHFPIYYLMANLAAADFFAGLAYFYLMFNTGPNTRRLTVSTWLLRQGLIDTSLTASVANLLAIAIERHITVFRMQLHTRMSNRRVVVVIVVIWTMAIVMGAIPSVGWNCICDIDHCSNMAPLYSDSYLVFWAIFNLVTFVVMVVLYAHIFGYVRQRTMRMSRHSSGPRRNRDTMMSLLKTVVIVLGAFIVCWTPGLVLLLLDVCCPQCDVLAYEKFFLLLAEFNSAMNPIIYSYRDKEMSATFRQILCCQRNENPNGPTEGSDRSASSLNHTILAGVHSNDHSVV

[7] = Aqueous solubility of the compound at pH 7.4; type: physicochemical; conditions: buffer
[8] = molecular target: Bile salt export pump (Homo sapiens, UniProt O95342); assay: Inhibition of BSEP in cryopreserved sandwich-cultured human hepatocytes by measuring reduction in TCA biliary clearance using taurocholic acid as substrate; type: cell-based, Hepatocyte
Sequence of Bile salt export pump (O95342 whole entry): as the sequence (O95342 whole entry) above

[9] = tested on: Mus musculus; assay: Inhibition of LPA-stimulated histamine release in male CD1 mouse plasma assessed as effective dose administered as po dose pretreated for 30 mins followed by LPA addition measured after 2 mins by enzyme immunoassay; type: functional; conditions: 32 min
[10] = Antiproliferative activity against LPA treated human HLF cells preincubated for 1 hr followed by LPA stimulation and measured after 24 hrs by BrdU assay; conditions: read-out: pIC50 (converted)
[11] = Clearance in female C57BL/6J mouse at 2 mg/kg, iv measured after 24 hrs by UPLC-MS/MS analysis; type: ADME, organism-based; conditions: in vivo
[12] = Volume of distribution at steady state in female C57BL/6J mouse at 2 mg/kg, iv measured after 24 hrs by UPLC-MS/MS analysis; type: ADME, organism-based; conditions: in vivo, read-out: Vdss
[13] = Oral bioavailability in female C57BL/6J mouse at 2 mg/kg, iv measured after 24 hrs by UPLC-MS/MS analysis; type: ADME, organism-based; conditions: in vivo
[14] = Half life in female C57BL/6J mouse at 2 mg/kg, iv measured after 24 hrs by UPLC-MS/MS analysis; type: ADME, organism-based; conditions: in vivo
[15] = Total Cmax in female C57BL/6J mouse plasma at 30 mg/kg, po measured after 24 hrs by UPLC-MS/MS analysis; type: ADME, organism-based
[16] = Unbound Cmax in female C57BL/6J mouse plasma at 30 mg/kg, po measured after 24 hrs by UPLC-MS/MS analysis; type: ADME, organism-based; conditions: in vivo
[17] = Total AUClast in female C57BL/6J mouse plasma at 30 mg/kg, po measured after 24 hrs by UPLC-MS/MS analysis; type: ADME, organism-based; conditions: in vivo
[18] = Unbound AUClast in female C57BL/6J mouse plasma at 30 mg/kg, po measured after 24 hrs by UPLC-MS/MS analysis; type: ADME, organism-based; conditions: in vivo
[19] = Tlast in female C57BL/6J mouse plasma at 30 mg/kg, po measured after 24 hrs by UPLC-MS/MS analysis; type: ADME, organism-based; conditions: in vivo
[20] = Total Cmax in female C57BL/6J mouse lung at 30 mg/kg, po measured after 24 hrs by UPLC-MS/MS analysis; type: ADME, organism-based
[21] = Unbound Cmax in female C57BL/6J mouse lung at 30 mg/kg, po measured after 24 hrs by UPLC-MS/MS analysis; type: ADME, organism-based; conditions: in vivo
[22] = Total AUClast in female C57BL/6J mouse lung at 30 mg/kg, po measured after 24 hrs by UPLC-MS/MS analysis; type: ADME, organism-based; conditions: in vivo
[23] = Unbound AUClast in female C57BL/6J mouse lung at 30 mg/kg, po measured after 24 hrs by UPLC-MS/MS analysis; type: ADME, organism-based; conditions: in vivo
[24] = Tlast in female C57BL/6J mouse lung at 30 mg/kg, po measured after 24 hrs by UPLC-MS/MS analysis; type: ADME, organism-based; conditions: in vivo
[25] = tested on: Mus musculus; assay: Antifibrotic activity against bleomycin-induced lung fibrosis in male C57Bl/6 mouse model assessed as reduction in ashcroft score at 50 mg/kg, po bid administered from day 7 to 21 relative to control; type: functional; parameters: scale not given: the % may be the effect or the level left; conditions: time 15 day

Sequence of Lysophosphatidic acid receptor 1 (Homo sapiens, UniProt Q92633) (Q92633 whole entry): as the sequence (P61793 whole entry) above, with A4I, S8I, Q22P, Y40H, V61I, D193E, H194N, V269I, N331S, N335T counted along it

Work on `Cc1nc(-c2nnn(C)c2NC(=O)O[C@H](C)c2ccccc2Cl)ccc1NC(=O)[C@H]1CCCC[C@@H]1C(=O)O` yielded an IC50 [1] of 31.6 nM, a chromatographic logD [2] of 1.18 and a microsomal CLint at 0.5 µM [3] of 2.7 µL/min/mg. For the same molecule, the microsomal CLint at 0.5 µM [4] was 0.4 µL/min/mg, the inhibition at 50 µM [5] was 16% and the IC50 [6] was 15.8 nM. The solubility [7] was 318 µM (≈ 172 µg/mL), the IC50 [8] was over 100000 nM and the ED50 [9] was 0.1 mg/kg. It also gave an IC50 [10] of 37.2 nM, a clearance [11] of 17.1 mL/min/kg and a Vd [12] of 2.1 L/kg. The bioavailability [13] was 22%, the half-life [14] was 4.19 h and the Cmax [15] was 3930 ng/mL. The fCmax [16] was 251 ng/mL, the AUClast [17] was 6720 h/ng/mL and the fAUClast [18] was 430 h/ng/mL. It also gave a Tlast [19] of 8 h, a Cmax [20] of 2620 ng/mL and a fCmax [21] of 167 ng/mL. For the same molecule, the AUClast [22] was 4040 h/ng/mL, the fAUClast [23] was 257 h/ng/mL and the Tlast [24] was 24 h.
Molecule `COC(=O)c1ccc2c(c1)NC(=O)/C2=C(\Nc1ccc(N(C)C(=O)CN2CCN(C)CC2)cc1)c1ccccc1` [NINTEDANIB] has an Activity [25] of 23%.
